We go through one compound from patent publication US20220087983A1, “ACTIVATING PYRUVATE KINASE R” (FORMA Therapeutics, Inc., priority 2020, published 2022).

Test [1] addresses T1, wt-PKR in mature human erythrocytes (Homo sapiens, UniProt P30613).
T1 construct: host or cells: purified human RBCs from donors
The test can be described thus: Cell assay: PKR activation in human RBCs (Biovision Pyruvate Kinase Assay). The test is classed as cell-based. The method, then: The activation of wt-PKR by Compound 1 in mature human erythrocytes ex vivo was evaluated in purified RBCs purchased from Research Blood Components. Cells treated with Compound 1 for 3 hr in glucose-containing media were washed, lysed, and assayed using a Biovision Pyruvate Kinase Assay (K709-100). The assay was repeated multiple times to account for donor-to-donor variability and the relatively narrow dynamic range.

Another test relates to 2,3-DPG blood levels. Kind of test: Phase 1: blood 2,3-DPG levels in healthy volunteers (LC-MS/MS). Conditions: for Mean maximum percent change from baseline in 2,3-DPG: all doses and timepoints. The class given is in vivo, human. The method, then:
In this study, SAD/MAD cohorts are randomized (3 to 1) to receive Compound 1 or placebo (P). Compound 1 was evaluated first in 4 healthy SAD cohorts and 4 healthy MAD (14-day dosing period) cohorts. Based on the safety, and PK/PD profile from HS, Compound 1 is then evaluated in 1 SCD SAD cohort and 2 SCD MAD cohorts. Specifically, based on the safety and pharmacokinetic/pharmacodynamics (PK/PD) profile in healthy volunteer studies, Compound 1 is evaluated in patients (pts) with SCD, first in a single dose (SD or SAD) cohort and then in multiple-dose (MD or MAD) cohorts (14-day and 12-week). Safety assessments include AEs, vital signs, ECGs and laboratory parameters. PK/PD blood sampling was performed on Day 1 (SAD/MAD) and Day 14 (MAD) and up to 72 h after the last dose and at the end-of-study visit. PD parameters included 2,3-DPG, ATP, and p50 in all cohorts with additional PD studies (including oxygen scan) performed only in the SCD cohorts. PD parameters included 2,3-DPG, ATP, p50, RBC deformability with controlled deoxygenation and reoxygenation (Lorrca® oxygen scan) and varying osmolality (Lorrca® osmoscan)). To maintain study blind, pt identifiers were removed when needed.
In the SAD cohorts, the subjects' blood 2,3-DPG levels were measured periodically after dosing by a qualified LC-MS/MS method for the quantitation of 2,3-DPG in blood. Decreased 2,3-DPG blood levels were observed 6 hours following a single dose of Compound 1 at all dose levels (earlier timepoints were not collected). Maximum decreases in 2,3-DPG levels generally occurred ˜24 hours after the first dose with the reduction sustained ˜48-72 hr postdose. Table 15 reports the median percentage change in 2,3-DPG blood levels, relative to baseline, measured over time in healthy volunteers after a single dose of Compound 1 (200 mg, 400 mg, 700 mg, or 1000 mg) or placebo. Table 16 reports the mean percentage change in 2,3-DPG blood levels, relative to baseline, measured over time in healthy volunteers after a single dose of Compound 1 (200 mg, 400 mg, 700 mg, or 1000 mg). Accordingly, the median and mean reduction in the concentration of 2,3-DPG, relative to baseline, was at least about 30% at all dose levels tested 24 hours after administration of the single dose.
In the MAD cohorts, the subjects' blood 2,3-DPG levels were measured periodically after dosing by a qualified LC-MS/MS method for the quantitation of 2,3-DPG in blood. The maximum decrease in 2,3-DPG on Day 14 was 55% from baseline (median). […] Table 18A reports the median percentage change in 2,3-DPG blood levels, relative to baseline, measured over time after the first dose on days 1 and 14 in healthy volunteers who received daily doses of Compound 1 (100 mg BID, 200 mg BID, or 300 mg BID) or placebo for 14 days. Table 18B reports the mean percentage change in 2,3-DPG blood levels, relative to baseline, measured over time after the first dose on days 1 and 14 in healthy volunteers who received daily doses of Compound 1 (100 mg BID, 200 mg BID, 300 mg BID, or 400 mg QD) for 14 days. Accordingly, the median and mean reduction in the concentration of 2,3-DPG, relative to baseline, was at least about 25% at all dose levels tested 24 hours after administration of the first dose on day 1 and at least about 40% at all dose levels tested 24 hours after administration of the first dose on day 14.
The following procedures are employed for the analysis of ATP and 2,3-DPG in human whole blood K2EDTA using a protein precipitation extraction procedure and analysis by LC-MS/MS.
The following procedures are used for sample extraction prior to analysis via LC-MS/MS. 15.0 μL of the calibration standards, quality controls, matrix blanks, and samples are aliquoted into a 96-well plate. 50.0 μL of the internal standard spiking solution is added to all samples on the plate, with the exception of the matrix blank samples; 50.0 μL of water is added to the matrix blank samples. […]

“And” between values parts separate entries of the source, which are not always exact repeats. Equal values may be shown once.

T1 sequence (P30613 whole entry): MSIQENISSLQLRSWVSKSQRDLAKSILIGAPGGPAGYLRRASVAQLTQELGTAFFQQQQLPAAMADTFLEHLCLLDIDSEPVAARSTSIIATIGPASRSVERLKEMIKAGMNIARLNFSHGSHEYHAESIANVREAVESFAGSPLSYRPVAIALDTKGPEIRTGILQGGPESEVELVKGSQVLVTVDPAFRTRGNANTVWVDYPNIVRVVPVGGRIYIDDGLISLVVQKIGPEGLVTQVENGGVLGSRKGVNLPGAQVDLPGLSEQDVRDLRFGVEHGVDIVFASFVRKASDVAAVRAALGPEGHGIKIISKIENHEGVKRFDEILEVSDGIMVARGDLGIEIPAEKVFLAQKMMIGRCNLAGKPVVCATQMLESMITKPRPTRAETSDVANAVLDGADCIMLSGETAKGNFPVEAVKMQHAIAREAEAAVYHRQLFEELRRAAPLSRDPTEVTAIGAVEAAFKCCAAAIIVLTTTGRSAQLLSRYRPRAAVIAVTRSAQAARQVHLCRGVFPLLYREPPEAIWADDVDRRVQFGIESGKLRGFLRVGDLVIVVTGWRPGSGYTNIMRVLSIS

Usually EC50 stands for the midpoint of the concentration-response curve. Compound `O=C([C@H](CO)c1ccccc1)N1CC2=C(C1)CN(S(=O)(=O)c1cnc3c(c1)OCCO3)C2` (single isomer, unassigned) [Compound 1] displayed an EC50 in test [1] (Cell Assay of Example 4) of less than 0.5 µM. Also, the “Max − Min (%)” value in test [1] (human RBCs, 3 hr, individual replicates 1-4) was <150% and <100% and <50%. The “Mean maximum activation increase (Max − Min)” value in test [1] (human RBCs, 3 hr, mean of replicates) was less than 100%. For the same compound, in the test on 2,3-DPG blood levels (HV MAD cohorts), the “maximum decrease in 2,3-DPG on Day 14 from baseline (median)” value was determined as 55%. Besides, the “median and mean reduction of 2,3-DPG relative to baseline” value is recorded as “at least 25%” in the test on 2,3-DPG blood levels (HV MAD, all dose levels, 24 hours after first dose on day 1); “at least 40%” in the test on 2,3-DPG blood levels (HV MAD, all dose levels, 24 hours after first dose on day 14); “at least 30%” with 2,3-DPG blood levels (HV, all single dose levels, 24 hours after dose). Also, the “Mean maximum percent change from baseline in 2,3-DPG” value in the test on 2,3-DPG blood levels (HV MAD, N = 36) is −56.3%; in the test with 2,3-DPG blood levels (HV SAD, N = 24) it was −46.8%. Further, in the test with 2,3-DPG blood levels (HV, single 200-1000 mg dose), the “lag of maximum 2,3-DPG decrease behind maximum plasma concentration” value was “about 24 hours”. Moreover, the “Median percentage change in 2,3-DPG levels” value in the test with 2,3-DPG blood levels (HV, single dose 200 mg, 0 h after dose) was 0.0%; with 2,3-DPG blood levels (HV, single dose 200 mg, 8 h after dose), −17%; with 2,3-DPG blood levels (HV, single dose 200 mg, 48 h after dose), −29%; with 2,3-DPG blood levels (HV, single dose 400 mg, 0 h after dose), 0.0%; in the test on 2,3-DPG blood levels (HV, single dose 400 mg, 8 h after dose), −29%; in the test with 2,3-DPG blood levels (HV, single dose 400 mg, 72 h after dose), −30%. The “Median percentage change in 2,3-DPG levels” value was 0.0% with 2,3-DPG blood levels (HV, single dose 700 mg, 0 h after dose); −29% with 2,3-DPG blood levels (HV, single dose 700 mg, 6 h after dose); −46% in the test on 2,3-DPG blood levels (HV, single dose 700 mg, 16 h after dose); −46% in the test with 2,3-DPG blood levels (HV, single dose 700 mg, 36 h after dose); −47% in the test on 2,3-DPG blood levels (HV, single dose 1000 mg, 36 h after dose).
